Measured values published in patent publication US20040053974A1, “Medicinal compositions containing diuretic and insulin resistance-improving agent” (priority 2000, published 2004).
Marks after values point to notes of the source that are not given here.

What was measured:
Assay type in all cases: in vivo, rat
female Wistar rats [1] = test: Co-administration of furosemide with compound A: circulating serum volume, heart-weight, edema and hydrothorax (macroscopic observation)
Experimental: 5-[4-(6-Methoxy-1-methyl-1H-benzimidazol-2-ylmethoxy)benzyl]thiazolidine-2,4-dione hydrochloride (200 mg/kg) was repeatedly and orally administered by gavage for 3 or 7 successive days to female Wistar rats (7 weeks old, Charles River Japan, Inc.) and furosemide (120 mg/kg and 240 mg/kg) was dietarily administered during the period.

Zucker fatty rats = test: Co-administration of furosemide or amiloride with compound A for 14 days: blood parameters, heart-weight, circulating serum volume; conditions: for blood dilution (decreases in hematocrit value and the number of red blood cells) caused by compound A / increases in circulating serum volume caused by compound A / increases in heart-weight caused by compound A: orally 14 days, 1 ml/kg of furosemide 100 mg/ml or amiloride 10 mg/ml
Experimental: Zucker fatty rats (7 weeks old, SLC, Shizuoka, Japan) were grouped as 5 rats a group. Mean body weight, plasma glucose and glyceride levels, hematocrit value, and the number of red blood cells in each group were similar among the groups. The rats were allowed to take food pellets (F2, Funabashi Farm) and water ad libitum. In the control group, the rats were given only food pellets, while the rest of rats were administered 5-[4-(6-methoxy-1-methyl-1H-benzimidazol-2-ylmethoxy)benzyl]thiazolidine-2,4-dione hydrochloride (suspended in 0.5% solution of carboxymethylcellulose (CMC)) at a volume of 1 ml/kg orally by gavage. In the groups of rats administered the above compound with furosemide (100 mg/ml, suspended in 0.5% CMC solution) or amiloride (10 mg/ml, suspended in distilled water), these diuretics were orally administered by gavage for 14 successive days at a volume of 1 ml/kg. After the final administration, the rats were fasted overnight, and their blood was collected from the tail vein with a capillary treated with heparin and EDTA on the 15th day.
Plasma glucose level and blood cell parameters were determined using an automatic analyzer (plasma glucose: Glucoloader GX-T, A&T Corp., blood cell parameters: K-1000, Sysmex Corporation, Kobe, Japan). Triglyceride was detected by the absorbance method with a kit (Triglyceride-E Test Wako, Wako Pure Chemical Industries, Ltd.). Concentrations of insulin and leptin were detected with RIA kits (Rat Insulin RIA Kit, Linco Research Inc.). Furthermore, circulating serum volume was determined by the dilution method using Evans blue.

female Wistar rats [2] = test: Heart-weight and circulating serum volume (Evans blue method) after repeated oral administration; conditions: for Ratio against control Heart-Weight / Ratio against control Circulating Serum volume: 200 mg/kg orally by gavage, female Wistar rats
Experimental: After 5-[4-(6-methoxy-1-methyl-1H-benzimidazol-2-ylmethoxy)benzyl]thiazolidine-2,4-dione hydrochloride (200 mg/kg) was repeatedly and orally administered by gavage for 3 or 7 successive days to female Wistar rats (7 weeks old, Charles River Japan, Inc.), circulating serum volume was determined by Evans blue methods and heart-weight recorded.

[3] = Furosemide 120 mg/kg dietary, co-administered with Compound A 200 mg/kg orally, female Wistar rats
[4] = Furosemide 240 mg/kg dietary, co-administered with Compound A 200 mg/kg orally, female Wistar rats
[5] = furosemide 120 and 240 mg/kg dietary co-administered with compound A 200 mg/kg
[6] = furosemide 120 and 240 mg/kg dietary co-administered with compound A 200 mg/kg, FIG. 1
[7] = co-administered with compound A, Zucker fatty rats
[8] = Compound A 200 mg/kg orally, Furosemide 0, female Wistar rats
[9] = orally by gavage, 14 successive days, Zucker fatty rats, FIG. 2
[10] = 7 successive days, n = 12, p < 0.01
[11] = 200 mg/kg orally, after administration for both 3 and 7 days

Compound: NS(=O)(=O)c1cc(C(=O)O)c(NCc2ccco2)cc1Cl [Furosemide, furosemide]
- Macroscopic Observation, Edema: Subcutaneous tissue (incidence) (female Wistar rats [1]; [3]): 0/12
- Macroscopic Observation, Edema: brown adipose tissue (incidence) (female Wistar rats [1]; [3]): 12/12
- Macroscopic Observation, Edema: interstitial tissue of thymus (incidence) (female Wistar rats [1]; [3]): 0/12
- Macroscopic Observation, Hydrothorax (incidence) (female Wistar rats [1]; [3]): 2/12
- mean weight of thymus (female Wistar rats [1]; [3]): 450.6 mg
- Macroscopic Observation, Edema: Subcutaneous tissue (incidence) (female Wistar rats [1]; [4]): 0/12
- Macroscopic Observation, Edema: brown adipose tissue (incidence) (female Wistar rats [1]; [4]): 10/12
- Macroscopic Observation, Edema: interstitial tissue of thymus (incidence) (female Wistar rats [1]; [4]): 0/12
- Macroscopic Observation, Hydrothorax (incidence) (female Wistar rats [1]; [4]): 0/12
- mean weight of thymus (female Wistar rats [1]; [4]): 375.9 mg
- Decreases in the number of circulating red blood cells produced by compound A (female Wistar rats [1]; [5]): prevented
- edema and hydrothorax associated with administration of compound A (female Wistar rats [1]; [5]): suppressed
- increases in circulating serum volume elicited by compound A (female Wistar rats [1]; [6]): suppressed
- increases in heart-weight elicited by compound A (female Wistar rats [1]; [6]): suppressed
- blood dilution (decreases in hematocrit value and the number of red blood cells) caused by compound A (Zucker fatty rats; [7]): suppressed
- increases in circulating serum volume caused by compound A (Zucker fatty rats; [7]): suppressed
- increases in heart-weight caused by compound A (Zucker fatty rats; [7]): suppressed

Compound: N=C(N)NC(=O)c1nc(Cl)c(N)nc1N [amiloride]
- ameliorating effects compared with furosemide (Zucker fatty rats; amiloride at 1/10 the dose of furosemide, co-administered with compound A, Zucker fatty rats): at least as potent as those of furosemide
- blood dilution (decreases in hematocrit value and the number of red blood cells) caused by compound A (Zucker fatty rats; [7]): suppressed
- increases in circulating serum volume caused by compound A (Zucker fatty rats; [7]): suppressed
- increases in heart-weight caused by compound A (Zucker fatty rats; [7]): suppressed
- suppression of side effects caused by insulin sensitizers, relative to diuretic action (Zucker fatty rats; rats co-treated with amiloride and compound A): more potent than those predicted from its diuretic action

Compound: COc1ccc2nc(COc3ccc(CC4SC(=O)NC4=O)cc3)n(C)c2c1.Cl (stereo not shown) [compound A, 5-[4-(6-methoxy-1-methyl-1H-benzimidazol-2-ylmethoxy)benzyl]thiazolidine-2,4-dione hydrochloride]
- Macroscopic Observation, Edema: Subcutaneous tissue (incidence) (female Wistar rats [1]; [8]): 1/12
- Macroscopic Observation, Edema: brown adipose tissue (incidence) (female Wistar rats [1]; [8]): 12/12
- Macroscopic Observation, Edema: interstitial tissue of thymus (incidence) (female Wistar rats [1]; [8]): 1/12
- Macroscopic Observation, Hydrothorax (incidence) (female Wistar rats [1]; [8]): 6/12
- mean weight of thymus (female Wistar rats [1]; [8]): 521.4 mg
- number of circulating red blood cells (female Wistar rats [1]; compound A 200 mg/kg orally, female Wistar rats): Decreases
- blood glucose levels (Zucker fatty rats; orally by gavage, 14 successive days, Zucker fatty rats): decreasing
- HOMA-R, an indicator of insulin resistance (Zucker fatty rats; [9]): remarkably decreased
- heart-weight (Zucker fatty rats; [9]): increases
- hematocrit value (dilution of the blood) (Zucker fatty rats; [9]): decreases
- number of red blood cells (dilution of the blood) (Zucker fatty rats; [9]): decreases
- triglyceride levels (Zucker fatty rats; [9]): remarkably decreased
- Ratio against control Heart-Weight (female Wistar rats [2]; 3 successive days, n = 5-6): 1.03^a)
- Ratio against control Circulating Serum volume (female Wistar rats [2]; 3 successive days, n = 5-6, p < 0.05): 1.18^a)*
- Ratio against control Circulating Serum volume (female Wistar rats [2]; [10]): 1.30^b)**
- Ratio against control Heart-Weight (female Wistar rats [2]; [10]): 1.22^b)**
- Circulating serum volume (female Wistar rats [2]; [11]): increased
- heart-weight (female Wistar rats [2]; [11]): increased
